In patent publication US9440972B2, “Pyrido[2,3-d]pyrimidine-2,4(1 H,3H)-dione derivatives” (Hydra Biosciences, Inc., priority 2014, dated 2016):

Key:
TRPC5 channel [1] = molecular target: T1, TRPC5 channel (Homo sapiens, UniProt Q9UL62); assay: Patch clamp experiments (whole-cell, LaCl3-activated TRPC5 current); format: cell-based; settings: whole-cell patch clamp in TRPC5-expressing HEK293 TREx cells; block of inward and outward currents in continued presence of LaCl3; IC50 estimated
T1 construct: expressed in transfected cells; host or cells: HEK293/TREx (Invitrogen), tetracycline-induced
T1 sequence (Q9UL62 1-973): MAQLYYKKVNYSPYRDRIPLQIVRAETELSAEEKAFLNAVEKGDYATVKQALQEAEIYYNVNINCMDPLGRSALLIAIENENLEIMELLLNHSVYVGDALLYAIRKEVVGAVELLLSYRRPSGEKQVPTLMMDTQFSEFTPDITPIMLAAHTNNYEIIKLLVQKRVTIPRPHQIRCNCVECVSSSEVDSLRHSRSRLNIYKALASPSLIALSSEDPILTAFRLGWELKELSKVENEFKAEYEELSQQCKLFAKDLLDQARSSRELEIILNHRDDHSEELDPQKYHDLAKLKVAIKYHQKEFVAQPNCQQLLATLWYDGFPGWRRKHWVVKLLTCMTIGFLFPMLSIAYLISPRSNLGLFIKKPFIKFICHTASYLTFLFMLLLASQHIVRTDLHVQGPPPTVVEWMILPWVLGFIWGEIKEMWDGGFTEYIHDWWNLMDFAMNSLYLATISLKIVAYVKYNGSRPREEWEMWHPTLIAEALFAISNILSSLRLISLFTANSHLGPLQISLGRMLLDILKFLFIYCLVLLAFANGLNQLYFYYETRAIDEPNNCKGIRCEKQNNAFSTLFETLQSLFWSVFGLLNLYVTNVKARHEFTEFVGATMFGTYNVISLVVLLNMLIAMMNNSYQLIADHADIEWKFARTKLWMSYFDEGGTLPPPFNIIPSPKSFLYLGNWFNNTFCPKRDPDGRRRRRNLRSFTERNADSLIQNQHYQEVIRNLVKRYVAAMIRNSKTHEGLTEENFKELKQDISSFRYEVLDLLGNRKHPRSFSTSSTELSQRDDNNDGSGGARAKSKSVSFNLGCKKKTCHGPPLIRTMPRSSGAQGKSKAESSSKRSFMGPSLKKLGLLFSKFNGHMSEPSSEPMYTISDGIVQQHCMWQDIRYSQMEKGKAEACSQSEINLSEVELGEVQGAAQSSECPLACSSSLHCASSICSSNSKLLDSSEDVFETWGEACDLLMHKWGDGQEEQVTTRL
From the text: Patch clamp experiments permit the detection of currents through the TRPC5 channel in the cell line described above. In normal whole-cell patch clamp recordings, a glass electrode is brought into contact with a single cell and a high-resistance (gigaohm) seal is established with the cell membrane. The membrane is then ruptured to achieve the whole-cell configuration, permitting control of the voltage of the cell membrane and measurement of currents flowing across the membrane using the amplifier attached to the electrode and resulting in the replacement of cytoplasm with the pipette solution. A perfusion system permits control of the extracellular solution, including the addition of blockers and activators of the current. The current can be activated by including 1.4 μM free Ca^2+ in the pipette (intracellular) solution, and 80 μM LaCl3 in the extracellular solution.
TRPC5 cells were induced 20-48 hours, removed from growth plates, and replated at low density (to attain good single-cell physical separation) on glass coverslips for measurement. In some cases, cells were grown in low density overnight on glass coverslips. Patch clamp recordings were made in the whole-cell mode with a holding potential of −40 mV. Every 5 seconds, a voltage ramp was applied from −120 to +100 mV, 400 ms in duration. Currents elicited were quantified at −80 mV and +80 mV. The internal solution consisted of 140 mM cesium aspartate, 10 mM HEDTA, 2 mM CaCl2, 2.27 mM MgCl2 and 10 mM HEPES, pH 7.2, with 1,400 nM calculated free Ca^2+. The external solution consisted of 150 mM NaCl, 4.5 mM KCl, 1 mM MgCl2, 2 mM CaCl2, 10 mM HEPES, 10 mM glucose, 1 mM EGTA, pH 7.4. Upon addition of LaCl3, TRPC5 current was induced only in TRPC5-expressing cells and not in parental HEK293 TREx cells. Removal of the LaCl3 stimulus causes most of the current to go away. Potential blockers were tested for ability to block both inward and outward currents in the continued presence of LaCl3.
IC50 of a compound of Formula (I) was estimated by testing the compound at 5 μM and 500 nM. […] IC50 for a compound of Formula (I) between 500 nM and 5 μM was similarly estimated.

TRPC5 channel [2] = molecular target: T1, TRPC5 channel; assay: High throughput screening assay: Fluo4 cell-based fluorescence assay of intracellular Ca2+ rise; settings: HEK293/TREx cells inducibly expressing TRPC5, 0.027-20 μM in triplicate, NF = no IC50 curve could be fit
From the text: The assay depended on detection of the rise in intracellular Ca2+ concentration ([Ca2+]i) following channel activation in cells inducibly expressing the TRPC5 channel. Ca2+ rise was quantified with the use of fluorescent Ca2+ indicators that were loaded into cells and thereafter indicated the [Ca2+]i Ca2+ influx followed activation of the TRPC5 channel. Compounds inhibiting the [Ca2+]i rise were considered hits for further investigation.
The commercially available HEK293/TREx line (Invitrogen) was stably transfected with a TRPC5 construct and screened by conventional calcium imaging to find clones with TRPC5 expression following stimulation with 1 μg/ml tetracycline. These cells were maintained in the growth medium recommended by the manufacturer supplemented with 100 μg/ml hygromycin to promote retention of the TRPC5 construct. After growing to near confluency, cells were plated at a density of ˜35,000 cells/well in 384 well CellBind plates (Corning) in the presence of 1 μg/ml tetracycline, and allowed to grow for 20-30 hrs. A nearly confluent monolayer resulted. Cells were then loaded with Ca2+ dye: Fura-2/AM or Fluo4/AM was added to the wells to a final concentration of 4 μM or 0.5 μM, respectively, and incubated for 80 min or 60 min, respectively, at room temperature. Supernatant was then removed from the cells by inverting plates with a sharp flick, and 25 μl Hank's Balanced Salt Solution (HBSS; 0.185 g/l D-glucose, 0.9767 g/l MgS04 (anhydrous), 0.4 g/l KCl, 0.06 g/l KH2PO4 (anhydrous), 0.35 g/l NaHCO3, 8.0 g/l NaCl, and 0.04788 g/l Na2HPO4 (anhydrous); pH 7.4) was then added to each well. Following ˜0.5 hour for recovery from loading, cells were assayed using the Hamamatsu FDSS 6000 system, which permitted illumination alternately at 340 nm and 380 nm for Fura-2 experiments, or at 485 nm for Fluo4 experiments. Frames were acquired at a rate of 0.2 Hz. During the assay, the plates were continuously vortexed, with pipette mixing of wells following addition of each reagent. For the screening assay, 26 μl of a diluted compound stock (at 50 μM) was added to each well for 2 minutes following the collection of a short (4 frame) baseline. 13 μl 62 mM high-Ca2+Ringer solution (4.17 ml of normal ringer (with 2 mM Ca2+) plus 5.83 ml of isotonic calcium ringer (105 mM Ca2+; in this ringer all sodium has been replaced with calcium)) was then added to each well, achieving a final concentration of 14 mM Ca2+ and 10 μM test compound. Data was collected for ˜3 minutes following addition of high Ca2+Ringer, where the fluorescent intensity (for Fluo4) and the F340/F380 ratio (for Fura-2) were proportional to the [Ca2+]i Negative controls consisted of HEK293/TREx TRPC5 cells exposed to high Ca2+ solution, but no compound. Positive control conditions consisted of addition of 2-APB, a promiscuous blocker of TRPC5 and other channels, to columns 23 and 24 of the plates, to a final concentration of 200 μM. These controls defined a screening window, and “hits” were defined as those compounds inhibiting the fluorescence response by at least 40%. IC50 values were determined for compounds defined as “hits.” The Fluo4 cell-based fluorescence assay was used to determine the intracellular Ca2+ concentration in the presence of varying drug concentration. Final concentrations of compounds tested were 20 μM, 6.667 μM, 2.222 μM, 0.741 μM, 0.247 μM, 0.082 μM, and 0.027 μM. Compounds were tested in triplicate at all concentrations. Standard software was used to fit IC50 curves. A value of NF was assigned when no IC50 curves could not be fit.
Additionally or alternatively, efficacy can be represented as % inhibition in the presence (of a given concentration of compound) versus the absence of compound or in comparison to a control compound. For example, efficacy can be represented as % inhibition of ion flux in the presence versus the absence of compound.

Row | Structure (SMILES) | IC50 (TRPC5 channel [1]) [nM] | IC50 (TRPC5 channel [2]) [nM]
1 | Cc1cncc(Oc2cnc3c(c2Cc2ccc(Cl)cc2)c(=O)n(CCCO)c(=O)n3C)c1 [Compound 27, 5-(4-chlorobenzyl)-3-(3-hydroxypropyl)-1-methyl-6-(5-methylpyridin-3-yloxy)pyrido[2,3-d]pyrimidine-2,4(1H,3H)-dione] | 29 | 
2 | Cn1c(=O)n(CCCO)c(=O)c2c(Cc3ccccc3)c(-c3cccc(F)c3)cnc21 [Compound 34, 5-benzyl-6-(3-fluorophenyl)-3-(3-hydroxypropyl)-1-methylpyrido[2,3-d]pyrimidine-2,4(1H,3H)-dione] | 8.3 | 154
3 | CC(C)Oc1cnc2c(c1Cc1ccc(F)cc1)c(=O)n(CCCO)c(=O)n2C [Compound 31, 5-(4-fluorobenzyl)-3-(3-hydroxypropyl)-6-isopropoxy-1-methylpyrido[2,3-d]pyrimidine-2,4(1H,3H)-dione] | 1.47 | 27
4 | CC(C)Oc1cnc2c(c1Cc1ccc(Cl)cc1)c(=O)n(CCCO)c(=O)n2C [Compound 36, 5-(4-chlorobenzyl)-3-(3-hydroxypropyl)-6-isopropoxy-1-methylpyrido[2,3-d]pyrimidine-2,4(1H,3H)-dione] | 1.2 | 27
5 | Cn1c(=O)n(CCCO)c(=O)c2c(C(O)c3ccc(Cl)cc3)c(-c3cccc(OC(F)(F)F)c3)cnc21 (stereo not shown) [Compound 39, 5-((4-chlorophenyl)(hydroxyl)methyl)-3-(3-hydroxypropyl)-1-methyl-6-(3-(trifluoromethoxy)phenyl)pyrido[2,3-d]pyrimidine-2,4(1H,3H)-dione] | 51.7 | 
6 | Cn1c(=O)n(CCCO)c(=O)c2c(Cc3ccc(Cl)cc3)c(-c3cccc(OC(F)(F)F)c3)cnc21 [Compound 40, 5-(4-chlorobenzyl)-3-(3-hydroxypropyl)-1-methyl-6-(3-(trifluoromethoxy)phenyl)pyrido[2,3-d]pyrimidine-2,4(1H,3H)-dione] | 2.9 | 
7 | Cn1c(=O)n(CCCO)c(=O)c2c(Cc3ccc(Cl)cc3)c(Oc3cccc(OC(F)(F)F)c3)cnc21 [Compound 21, 5-(4-chlorobenzyl)-3-(3-hydroxypropyl)-1-methyl-6-(3-(trifluoromethoxy)phenoxy)pyrido[2,3-d]pyrimidine-2,4(1H,3H)-dione] | < 1 | 269
8 | Cn1c(=O)n(CCCO)c(=O)c2c(Cc3ccc(F)cc3)c(Oc3ccc(Cl)cc3)cnc21 [Compound 30, 6-(4-chlorophenoxy)-5-(4-fluorobenzyl)-3-(3-hydroxypropyl)-1-methylpyrido[2,3-d]pyrimidine-2,4(1H,3H)-dione] | < 1 | 357
9 | CC(C)CCc1c(-c2ccccc2C(C)C)cnc2c1c(=O)n(CCCO)c(=O)n2C [Compound 23, 3-(3-hydroxypropyl)-5-isopentyl-6-(2-isopropylphenyl)-1-methylpyrido[2,3-d]pyrimidine-2,4(1H,3H)-dione] | 12.2 | 6490
10 | CC(C)Oc1cnc2c(c1Cc1ccccc1)c(=O)n(CCCO)c(=O)n2C [Compound 29, 5-benzyl-3-(3-hydroxypropyl)-6-isopropoxy-1-methylpyrido[2,3-d]pyrimidine-2,4(1H,3H)-dione] | 4.5 | 27
11 | Cn1c(=O)n(CCCO)c(=O)c2c(Cc3ccc(Cl)cn3)c(-c3cccc(OC(F)(F)F)c3)cnc21 [Compound 35, 5-((5-chloropyridin-2-yl)methyl)-3-(3-hydroxypropyl)-1-methyl-6-(3-(trifluoromethoxy)phenyl)pyrido[2,3-d]pyrimidine-2,4(1H,3H)-dione] | 3.4 | 14
